Reference: paper PMC7125586 (Febs Letters, 2007)

Key:
[1] = target: furin (recombinant soluble hfurin) (Homo sapiens, UniProt P09958); test: Inhibition assay of furin with fluorogenic substrate Pyr-RTKR-MCA; assay type: biochemical; details: up to 100 μM heparin (20 μM or 100 μM); fluorescence
gp160 processing = details: cell-permeable peptide; cited from earlier work

Sequence of furin (recombinant soluble hfurin) (P09958 108-715 limits assumed): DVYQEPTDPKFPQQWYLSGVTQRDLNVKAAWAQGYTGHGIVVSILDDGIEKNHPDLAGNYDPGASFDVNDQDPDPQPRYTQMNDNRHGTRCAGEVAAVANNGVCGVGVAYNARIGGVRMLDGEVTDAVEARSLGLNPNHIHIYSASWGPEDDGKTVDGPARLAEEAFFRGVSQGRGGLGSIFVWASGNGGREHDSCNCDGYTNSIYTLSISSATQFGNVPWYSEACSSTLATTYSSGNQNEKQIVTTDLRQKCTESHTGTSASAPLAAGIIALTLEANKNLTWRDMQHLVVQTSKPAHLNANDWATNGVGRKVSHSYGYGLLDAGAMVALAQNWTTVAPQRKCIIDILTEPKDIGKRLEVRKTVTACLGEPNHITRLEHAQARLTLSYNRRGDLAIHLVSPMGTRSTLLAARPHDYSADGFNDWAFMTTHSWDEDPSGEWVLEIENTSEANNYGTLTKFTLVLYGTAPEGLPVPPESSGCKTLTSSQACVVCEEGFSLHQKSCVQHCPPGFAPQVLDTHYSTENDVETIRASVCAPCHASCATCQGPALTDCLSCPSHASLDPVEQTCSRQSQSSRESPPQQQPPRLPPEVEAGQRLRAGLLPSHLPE

Row | Substance | Influence on furin activity on Pyr-RTKR-MCA processing [1] | Interference with gp160 processing (gp160 processing)
1 | heparin | did not influence furin activity | –
2 | KIEPLGVAPTKAKRRVVQREKR [22mer] | – | interferes with gp160 processing
